Source: US20250186475A1, “METHODS OF TREATING MEDICAL CONDITIONS USING ISLATRAVIR OR A RELATED COMPOUND” (ROME Therapeutics, Inc., priority 2022, published 2025)

Key:
SW756 cells = experiment: Cancer cell viability assay with 3D cell colonies (CellTiter-Glo), SW756; format: cell-based; settings: Homo sapiens, SW756, 168 h, 7 days
Protocol: (§1) Ovarian cancer cell line SK-OV-3 cells were cultured in McCoy's 5a media containing 10% FBS. Ovarian cancer cell line OVCAR-8 cells were cultured in RPMI media containing 10% FBS. Additional cancer cell lines were cultured in the following media: • Ovarian cancer SW756 cells—L-15 (100% air)+10% FBS • Esophageal cancer TE-1 cells—RPMI-1640+10% FBS • Esophageal cancer KYSE-410 cells—RPMI-1640+5˜10% FBS • Esophageal cancer KYSE-70 cells—RPMI-1640+10% h.i.FBS. • Pharyngeal cancer FaDu cells—MEM+0.01 mM NEAA+10% FBS
(§2) Cell colony formation was tested using a 3D methylcellulose-based CellTiter-Glo (CTG) viability assay (Cat. No: G7573, Promega). Briefly, cells were inoculated into 96-well plates (at 1,500 cells per well) into a solution of 0.65% methylcellulose in growth media and incubated overnight at 37° C. in 5% CO2. The next day, serially diluted test compound (islatravir) or positive control (cisplatin, Cat. No. 6J015A89, Qilu Pharma) were added at the indicated concentrations, and the cells were incubated for 7 days. On day seven, 100 μL of CTG reagent was added, and the plates were incubated at room temperature for 20 min. Luminescence was read on an Envision Multi Label Reader according to manufacturer's instructions. IC50 values were determined using the following calculation: […]

[1] = system: interferon-stimulated gene (ISG) expression; experiment: In vivo decitabine challenge model; set-up: species or system C57BL/6 mice; settings: islatravir p.o. 0.6, 2.0, 6.0 mg/kg once daily with decitabine i.p. 5 mg/kg, Day 0 to Day 4
Protocol: Twenty 9-11 week old C57BL/6 mice were acclimated to the lab for at least 5 days. Islatravir was prepared in a 0.5% methylcellulose solution for p.o. administration. Decitabine (Sigma) was dissolved in sterile PBS (pH 7.4) and dosed within 30 minutes of preparation of the solution. Doses of both islatravir and decitabine were administered once a day, every day from Day 0 to Day 4. On Day 0, mice were split into four groups of five mice and given their first dose of decitabine (i.p., 5 mg/kg) and compound 23. Dosing groups were: [table] Decitabine and islatravir were administered daily from Day 0 to Day 4. All mice were euthanized 1 hour after the last dose administration on Day 4. Spleens, liver, and terminal colon were collected, along with plasma from each animal. The fold changes in interferon-stimulated gene (ISG) expression was calculated by first normalizing to GAPDH gene using the Delta CT method. The CT (gene of interest)—CT (reference gene) was calculated to generate a delta CT for all samples. The fold change was then calculated by taking the […](Delta CT(control)−Delta CT (experimental). The control in this example was the PBS control animal group. The Taqman duplex assay (Thermo Fisher 4331182 and 4448489) was used according to the manufacturer's instructions to determine levels of GAPDH v. IFIT2.

KYSE-410 cells = experiment: Cancer cell viability assay with 3D cell colonies (CellTiter-Glo), KYSE-410; format: cell-based; settings: Homo sapiens, KYSE-410, 168 h, 7 days
Protocol: as §1, §2

OVCAR-8 cells = experiment: Cancer cell viability assay with 3D cell colonies (CellTiter-Glo), OVCAR-8; format: cell-based; settings: Homo sapiens, OVCAR-8, 168 h; 3D tumorsphere growth, 7 days
Protocol: as §1, §2

FaDu cells = experiment: Cancer cell viability assay with 3D cell colonies (CellTiter-Glo), FaDu; format: cell-based; settings: Homo sapiens, FaDu, 168 h, 7 days
Protocol: as §1, §2

KYSE-70 cells = experiment: Cancer cell viability assay with 3D cell colonies (CellTiter-Glo), KYSE-70; format: cell-based; settings: Homo sapiens, KYSE-70, 168 h, 7 days
Protocol: as §1, §2

TE-1 cells = experiment: Cancer cell viability assay with 3D cell colonies (CellTiter-Glo), TE-1; format: cell-based; settings: Homo sapiens, TE-1, 168 h, 7 days
Protocol: as §1, §2

SK-OV-3 cells = experiment: Cancer cell viability assay with 3D cell colonies (CellTiter-Glo), SK-OV-3; format: cell-based; settings: Homo sapiens, SK-OV-3, 168 h; 3D tumorsphere growth, 7 days
Protocol: as §1, §2

[2] = target: T1, LINE1 reverse transcriptase (Homo sapiens, UniProt O00370); experiment: Transient artificial-intron Cis LINE1 reporter assay; format: cell-based; settings: HEK 293 cells, FLuc/RLuc ratio, read-out: IC50 for inhibition of FLuc luminescence
T1 construct: expressed in transfected cells
Protocol: Intron-disrupted Firefly luciferase (FLuc) expression cassettes were generated as described by Xie, Y. et al. “Characterization of L1 retrotransposition with high-throughput dual-luciferase assays,” Nucleic Acid Res. (2011) Vol. 39, No. 3, e16. In addition, the plasmid contained an intact Renilla luciferase (RLuc) expression cassette on the vector backbone, in order to normalize transfection efficiency and measure potential cell toxicity.
HEK 293 cells were seeded in 96-well plates at 1,000 cells/well in 55 μL and grown for 24 hours. Cells were transfected with FuGeneHD (Promega) following the manufacturer's protocol. Each well received 0.133 ng plasmid, 0.4 μL FuGeneHD reagent, and 4.5 μL GlutaMAX-I-supplemented Opti-MEM I reduced-serum medium (Invitrogen). Cells were simultaneously treated with test compound serially diluted starting at 100 μM in a 3-fold dilution dose response.
Luminescence was measured using the Dual-Glo Luciferase Assay System (Promega) following the manufacturer's instructions. The ratio between FLuc and RLuc gene expression was used to report LINE1 activity.

T1 sequence (O00370 whole entry, looked up): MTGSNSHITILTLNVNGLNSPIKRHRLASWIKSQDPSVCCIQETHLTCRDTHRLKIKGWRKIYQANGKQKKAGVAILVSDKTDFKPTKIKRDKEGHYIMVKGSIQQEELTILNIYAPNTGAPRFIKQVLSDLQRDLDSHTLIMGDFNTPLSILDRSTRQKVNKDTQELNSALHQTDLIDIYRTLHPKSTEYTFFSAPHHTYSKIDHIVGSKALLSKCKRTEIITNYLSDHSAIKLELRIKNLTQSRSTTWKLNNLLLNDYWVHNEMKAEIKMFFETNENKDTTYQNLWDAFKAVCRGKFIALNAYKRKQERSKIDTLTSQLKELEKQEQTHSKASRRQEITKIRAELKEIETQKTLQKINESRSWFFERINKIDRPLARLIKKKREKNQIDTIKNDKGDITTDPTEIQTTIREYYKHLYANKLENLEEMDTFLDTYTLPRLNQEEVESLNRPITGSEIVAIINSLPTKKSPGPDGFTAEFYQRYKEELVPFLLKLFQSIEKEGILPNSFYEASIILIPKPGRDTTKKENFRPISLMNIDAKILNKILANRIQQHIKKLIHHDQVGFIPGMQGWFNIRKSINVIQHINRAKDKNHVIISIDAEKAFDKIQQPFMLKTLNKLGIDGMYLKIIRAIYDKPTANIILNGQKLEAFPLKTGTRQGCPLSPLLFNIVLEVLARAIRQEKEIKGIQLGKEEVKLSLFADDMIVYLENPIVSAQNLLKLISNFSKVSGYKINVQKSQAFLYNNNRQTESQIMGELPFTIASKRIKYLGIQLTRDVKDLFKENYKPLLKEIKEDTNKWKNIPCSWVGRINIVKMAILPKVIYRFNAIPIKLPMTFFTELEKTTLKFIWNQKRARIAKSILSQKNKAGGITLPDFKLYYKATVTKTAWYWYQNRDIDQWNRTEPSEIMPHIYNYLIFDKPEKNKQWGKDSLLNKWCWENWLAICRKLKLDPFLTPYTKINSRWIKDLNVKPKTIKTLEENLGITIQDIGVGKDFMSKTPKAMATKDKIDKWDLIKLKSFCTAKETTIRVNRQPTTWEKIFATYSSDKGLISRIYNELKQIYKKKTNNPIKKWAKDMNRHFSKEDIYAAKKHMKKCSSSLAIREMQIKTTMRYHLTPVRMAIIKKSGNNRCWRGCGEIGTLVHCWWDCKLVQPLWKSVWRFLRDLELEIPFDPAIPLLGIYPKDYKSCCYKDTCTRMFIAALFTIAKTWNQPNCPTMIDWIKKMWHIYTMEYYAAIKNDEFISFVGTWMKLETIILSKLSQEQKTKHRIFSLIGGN

## C#C[C@]1(CO)O[C@@H](n2cnc3c(N)nc(F)nc32)C[C@@H]1O [Islatravir, (2R,3S,5R)-5-(6-amino-2-fluoro-9H-purin-9-yl)-2-ethynyl-2-(hydroxymethyl)tetrahydrofuran-3-ol]
SW756 cells
  IC50: > 30 µM
[1]
  change in ISG response: showed the change in ISG response
KYSE-410 cells
  IC50: > 30 µM
OVCAR-8 cells
  IC50: 1.95 µM
FaDu cells
  IC50: 10 to 30 µM
KYSE-70 cells
  IC50: 10 to 30 µM
TE-1 cells
  IC50: ≤ 10 µM
SK-OV-3 cells
  IC50: 6.54 µM
[2]
  IC50: 0.02 µM
